In the assay the test system is CD2F1 mice, L1210 leukemia ip, survival T/C. Put plainly: NCI In Vivo Anticancer Drug Screen. Data for tumor model L1210 Leukemia (intraperitoneal) in CD2F1 (CDF1) mice. As to conditions: higher = longer survival. In a few lines: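 Activity against a transplanted murine tumor was judged by comparing the compound group with a vehicle group. The outcome in the treated animals was divided by that in the controls.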

Setting [1] is: endpoint: mean survival time, dose: 100.0 mg/kg/injection, schedule: Q01DX009 (ip), vehicle: saline with Tween-80.
[2] abbreviates: endpoint: mean survival time, dose: 100.0 mg/kg/injection, schedule: Q04DX003 (ip), vehicle: saline with Tween-80.
The mark [3] stands for this setting: endpoint: mean survival time, dose: 200.0 mg/kg/injection, schedule: Q01DX009 (ip), vehicle: saline with Tween-80.
The mark [4] stands for this setting: endpoint: mean survival time, dose: 200.0 mg/kg/injection, schedule: Q04DX003 (ip), vehicle: saline with Tween-80.
[5] abbreviates: endpoint: mean survival time, dose: 400.0 mg/kg/injection, schedule: Q01DX009 (ip), vehicle: saline with Tween-80.
[6] abbreviates: endpoint: mean survival time, dose: 400.0 mg/kg/injection, schedule: Q04DX003 (ip), vehicle: saline with Tween-80.
[7] abbreviates: endpoint: mean survival time, dose: 25.0 mg/kg/injection, schedule: Q01DX009 (ip), vehicle: saline.
Where [8] appears, read: endpoint: mean survival time, dose: 50.0 mg/kg/injection, schedule: Q01DX009 (ip), vehicle: saline.
Where [9] appears, read: endpoint: mean survival time, dose: 100.0 mg/kg/injection, schedule: Q04DX002 (ip), vehicle: saline with Tween-80.
Setting [10] is: endpoint: mean survival time, dose: 200.0 mg/kg/injection, schedule: Q04DX002 (ip), vehicle: saline with Tween-80.
Setting [11] is: endpoint: mean survival time, dose: 50.0 mg/kg/injection, schedule: Q04DX002 (ip), vehicle: saline with Tween-80.

The structures appear in SMILES notation. Several values for one entry are separate records, joined by “and”; a condition that tells them apart may be missing. Equal entries are not always repeated. Toxic doses and inconclusive results are not listed.

In the case of `Oc1c(Cl)cc(Cl)cc1C=NCCSc1ccc(Cl)cc1`, the T/C (endpoint: median survival time, dose: 25.0 mg/kg/injection, schedule: Q01DX009 (ip), vehicle: Klucel (hydroxypropylcellulose) (HPC)) was 112 % of control; the T/C (endpoint: median survival time, dose: 50.0 mg/kg/injection, schedule: Q01DX009 (ip), vehicle: Klucel (hydroxypropylcellulose) (HPC)) was 101 % of control; the T/C (endpoint: median survival time, dose: 100.0 mg/kg/injection, schedule: Q01DX009 (ip), vehicle: Klucel (hydroxypropylcellulose) (HPC)) was 97 % of control; the T/C (endpoint: median survival time, dose: 200.0 mg/kg/injection, schedule: Q01DX009 (ip), vehicle: Klucel (hydroxypropylcellulose) (HPC)) is 100 % of control.

For the molecule `O=C1OC(Cl)(c2cccc3ccccc23)c2ccccc21` (stereo not drawn), the T/C runs as follows: (endpoint: mean survival time, dose: 100.0 mg/kg/injection, schedule: Q04DX003 (ip), vehicle: Klucel (hydroxypropylcellulose) (HPC)) 87 % of control; (endpoint: mean survival time, dose: 200.0 mg/kg/injection, schedule: Q04DX003 (ip), vehicle: Klucel (hydroxypropylcellulose) (HPC)) 87 % of control; (endpoint: mean survival time, dose: 400.0 mg/kg/injection, schedule: Q04DX003 (ip), vehicle: Klucel (hydroxypropylcellulose) (HPC)) 94 % of control.

Turning to `CNNCCO`, the T/C reads like this: (endpoint: mean survival time, dose: 50.0 mg/kg/injection, schedule: Q01DX001 (ip), vehicle: saline) 104 % of control; (endpoint: mean survival time, dose: 100.0 mg/kg/injection, schedule: Q01DX001 (ip), vehicle: saline) 101 % of control; (endpoint: mean survival time, dose: 200.0 mg/kg/injection, schedule: Q01DX001 (ip), vehicle: saline) 101 % of control.

For the molecule `CC1(C)CCCC2(C)CC/C(=N\NC(N)=O)C=C12` (stereo not drawn), the T/C is, setting by setting: under setting [1], 93 % of control; under setting [2], 95 % of control; under setting [3], 89 % of control; under setting [4], 96 % of control; under setting [5], 88 % of control; under setting [6], 96 % of control.

Regarding `Cc1c2c(cc3c1CCC1(C)C3CCC1C(C)CCC(C)C(C)C)CC(O)CC2` (stereo not drawn), the T/C was 92 % of control (endpoint: mean survival time, dose: 75.0 mg/kg/injection, schedule: Q01DX001 (ip), vehicle: saline with Tween-80); 90 % of control (endpoint: mean survival time, dose: 150.0 mg/kg/injection, schedule: Q01DX001 (ip), vehicle: saline with Tween-80); 90 % of control (endpoint: mean survival time, dose: 300.0 mg/kg/injection, schedule: Q01DX001 (ip), vehicle: saline with Tween-80).

Turning to `N#Cc1nccnc1Cl`, the T/C was 96 % of control under setting [2] and 86 % of control under setting [4].

As for `CCc1ccc(OC(C)=O)cc1`, the T/C reads like this: (endpoint: mean survival time, dose: 50.0 mg/kg/injection, schedule: Q01DX009 (ip), vehicle: Klucel (hydroxypropylcellulose) (HPC)) 98 % of control; (endpoint: mean survival time, dose: 100.0 mg/kg/injection, schedule: Q01DX009 (ip), vehicle: Klucel (hydroxypropylcellulose) (HPC)) 98 % of control; (endpoint: mean survival time, dose: 200.0 mg/kg/injection, schedule: Q01DX009 (ip), vehicle: Klucel (hydroxypropylcellulose) (HPC)) 90 % of control.

For the molecule `COc1ccccc1N=O`, the T/C (endpoint: mean survival time, dose: 12.5 mg/kg/injection, schedule: Q01DX001 (ip), vehicle: Klucel (hydroxypropylcellulose) (HPC)) is 93 % of control; the T/C (endpoint: mean survival time, dose: 25.0 mg/kg/injection, schedule: Q01DX001 (ip), vehicle: Klucel (hydroxypropylcellulose) (HPC)) was 96 % of control; the T/C (endpoint: mean survival time, dose: 50.0 mg/kg/injection, schedule: Q01DX001 (ip), vehicle: Klucel (hydroxypropylcellulose) (HPC)) is 93 % of control.

Take `O=NN(CCCl)C(=S)NC1CCCCC1`: the T/C runs as follows: (endpoint: mean survival time, dose: 6.25 mg/kg/injection, schedule: Q01DX001 (ip), vehicle: other) 104 % of control; (endpoint: mean survival time, dose: 12.5 mg/kg/injection, schedule: Q01DX001 (ip), vehicle: other) 211 % of control; (endpoint: mean survival time, dose: 25.0 mg/kg/injection, schedule: Q01DX001 (ip), vehicle: other) 246 % of control and 403 % of control; (endpoint: mean survival time, dose: 50.0 mg/kg/injection, schedule: Q01DX001 (ip), vehicle: other) 295 % of control and 523 % of control.

In the case of `CC1CC(C)/C(=N/NC(N)=S)C(C(O)CC2CC(=O)NC(=O)C2)C1` (stereo not drawn), the T/C runs as follows: under setting [7], 94 % of control and 100 % of control; under setting [8], 100 % of control and 102 % of control; (endpoint: mean survival time, dose: 100.0 mg/kg/injection, schedule: Q01DX009 (ip), vehicle: saline) 97 % of control and 103 % of control; (endpoint: mean survival time, dose: 200.0 mg/kg/injection, schedule: Q01DX009 (ip), vehicle: saline) 113 % of control and 102 % of control; (endpoint: mean survival time, dose: 400.0 mg/kg/injection, schedule: Q01DX009 (ip), vehicle: saline) 113 % of control and 114 % of control.

With `CCC(C)OC(=O)Nc1cccc(OC(=O)N(C)C)c1` (stereo not drawn), the T/C runs as follows: under setting [2], 97 % of control; under setting [4], 97 % of control; under setting [6], 100 % of control.

In the case of `O=C(Nc1ccccc1)OCCc1c2ccccc2nc2ccccc12`, the T/C under setting [9] is 94 % of control; the T/C under setting [10] is 94 % of control; the T/C (endpoint: mean survival time, dose: 400.0 mg/kg/injection, schedule: Q04DX002 (ip), vehicle: saline with Tween-80) was 90 % of control and 97 % of control.

For the molecule `CN1CCCN(C)C1c1cc([N+](=O)[O-])ccc1O`, the T/C runs as follows: (endpoint: mean survival time, dose: 6.25 mg/kg/injection, schedule: Q01DX009 (ip), vehicle: saline sonified) 100 % of control; (endpoint: mean survival time, dose: 6.25 mg/kg/injection, schedule: Q04DX003 (ip), vehicle: saline sonified) 106 % of control; (endpoint: mean survival time, dose: 12.5 mg/kg/injection, schedule: Q01DX009 (ip), vehicle: saline sonified) 98 % of control; (endpoint: mean survival time, dose: 12.5 mg/kg/injection, schedule: Q04DX003 (ip), vehicle: saline sonified) 101 % of control; (endpoint: mean survival time, dose: 25.0 mg/kg/injection, schedule: Q01DX009 (ip), vehicle: saline sonified) 89 % of control; (endpoint: mean survival time, dose: 25.0 mg/kg/injection, schedule: Q04DX003 (ip), vehicle: saline sonified) 98 % of control.

Regarding `COc1ccc(OC)c(/C=C(/C#N)C(N)=O)c1`, the T/C reads like this: under setting [11], 104 % of control; under setting [9], 93 % of control; (endpoint: mean survival time, dose: 200.0 mg/kg/injection, schedule: Q01DX001 (ip), vehicle: saline with Tween-80) 91 % of control; under setting [10], 93 % of control; (endpoint: mean survival time, dose: 400.0 mg/kg/injection, schedule: Q01DX001 (ip), vehicle: saline with Tween-80) 90 % of control.

Turning to `C(=C\c1ccc2ccccc2n1)/c1ccc2c(c1)OCO2`, the T/C reads like this: under setting [1], 96 % of control; under setting [2], 102 % of control; under setting [3], 96 % of control; under setting [4], 102 % of control; under setting [5], 95 % of control; under setting [6], 101 % of control.

On to `CC(C)NC(=O)C1CC2c3cccc4c3C(CN4)CC2N(C)C1` (stereo not drawn), for which the T/C was 98 % of control (endpoint: mean survival time, dose: 12.5 mg/kg/injection, schedule: Q04DX002 (ip), vehicle: saline with Tween-80); 95 % of control (endpoint: mean survival time, dose: 25.0 mg/kg/injection, schedule: Q04DX002 (ip), vehicle: saline with Tween-80); 98 % of control under setting [11].

As for `Fc1c(F)c(F)[c]([Ge]([c]2c(F)c(F)c(F)c(F)c2F)([c]2c(F)c(F)c(F)c(F)c2F)[c]2c(F)c(F)c(F)c(F)c2F)c(F)c1F`, the T/C reads like this: under setting [1], 97 % of control; under setting [2], 86 % of control; under setting [3], 92 % of control; under setting [4], 91 % of control; under setting [5], 91 % of control; under setting [6], 93 % of control.

With `COc1ccc(CC(=O)C(C)C(O)(C(F)(F)F)C(F)(F)F)cc1OC` (stereo not drawn), the T/C is 108 % of control under setting [2], 102 % of control under setting [4] and 103 % of control under setting [6].

As for `CC(=O)Nc1ccc(/C=N/NC(=O)CNC(=O)Nc2ccc(Cl)c(Cl)c2)cc1`, the T/C runs as follows: under setting [1], 95 % of control; under setting [3], 100 % of control; under setting [5], 109 % of control.

Regarding `S=C1CCNCC1`, the T/C is 98 % of control (endpoint: mean survival time, dose: 12.5 mg/kg/injection, schedule: Q01DX009 (ip), vehicle: saline); 100 % of control (endpoint: mean survival time, dose: 12.5 mg/kg/injection, schedule: Q04DX003 (ip), vehicle: saline); 103 % of control under setting [7]; 96 % of control (endpoint: mean survival time, dose: 25.0 mg/kg/injection, schedule: Q04DX003 (ip), vehicle: saline); 104 % of control under setting [8]; 87 % of control (endpoint: mean survival time, dose: 50.0 mg/kg/injection, schedule: Q04DX003 (ip), vehicle: saline).

Turning to `S=C1SCCN1C1CCCCC1`, the T/C reads like this: under setting [1], 102 % of control; under setting [2], 92 % of control; under setting [3], 96 % of control; under setting [4], 96 % of control; under setting [5], 93 % of control; under setting [6], 92 % of control.

On to `COc1cc(CC(=O)NO)cc(OC)c1OC`, for which the T/C under setting [9] was 88 % of control and the T/C under setting [10] is 88 % of control.

Values taken from PubChem BioAssay AID256 (DTP/NCI, 2004).
